Reference: patent US9809697B2, “Crosslinking agent, crosslinked polymer, and compound” (THE NIPPON SYNTHETIC CHEMICAL INDUSTRY CO., LTD., priority 2013, dated 2017)

Experiment: Solubility in water
Format: physicochemical
Details: solubility in 100 g of water at 23° C.
Method: The white solid obtained above was examined for solubility in 100 g of water at 23° C.

Structure (SMILES)	Crosslinking agent Solubility [g]
CN(N)C(=O)CCCCC(=O)N(C)N [formula (4)]	150
NNC(=O)CCCCC(=O)NN [ADH, adipic acid dihydrazide]	12.5
